Measured values reported in patent US8729083B2, “Pyrazole compounds for controlling invertebrate pests” (BASF SE, priority 2008, dated 2014).

Columns and labels:
Format in all cases: in vivo
Anthonomus grandis = assay: Boll weevil (Anthonomus grandis), eggs on insect diet in microtiter plates; details: 120 h, test solution 2500 mg/L, 20 μl sprayed onto diet, 5 days, read-out: mortality (egg and larval)
Procedure: II.6 Boll Weevil (Anthonomus grandis)
The compounds were formulated in 75:25 (vol:vol) water:DMSO.
For evaluating control of boll weevil (Anthonomus grandis) the test unit consisted of 24-well-microtiter plates containing an insect diet and 20-30 A. grandis eggs. Different concentrations of formulated compounds were sprayed onto the insect diet at 20 μl, using a custom built micro atomizer, at two replications. After application, the microtiter plates were incubated at 23±1° C. and 50±5% relative humidity for 5 days. Egg and larval mortality was then visually assessed.

Myzus persicae [1] = assay: Green peach aphid (Myzus persicae) through systemic means, artificial diet under membrane; details: 72 h, pipetted into aphid diet, 3 days, read-out: mortality in comparison with untreated controls
From the text: II.9 Activity Against Green Peach Aphid (Myzus persicae)
For evaluating control of green peach aphid (Myzus persicae) through systemic means the test unit consisted of 96-well-microtiter plates containing liquid artificial diet under an artificial membrane.
The compounds were formulated using a solution containing 75% v/v water and 25% v/v DMSO. Different concentrations of formulated compounds were pipetted into the aphid diet, using a custom built pipetter, at two replications. After application, 5 to 8 adult aphids were placed on the artificial membrane inside the microtiter plate wells The aphids were then allowed to suck on the treated aphid diet and incubated at about 23+1° C. and about 50+5% relative humidity for 3 days. Aphid mortality and fecundity was then visually assessed.

Aphis gossypii = assay: Cotton aphid (Aphis gossypii, mixed life stages), method b: electrostatic spray; details: 120 h, sprayed, after 5 days, read-out: mortality in comparison with untreated controls
Procedure: II.1 Cotton Aphid (Aphis gossypii, Mixed Life Stages)
(§1) The active compounds were formulated in cyclohexanone as a 10,0000 ppm solution supplied in 1.3 ml ABgene® tubes. These tubes were inserted into an automated electrostatic sprayer equipped with an atomizing nozzle and they served as stock solutions for which lower dilutions were made in 50% acetone:50% water (v/v). A nonionic surfactant (Kinetic®) was included in the solution at a volume of 0.01% (v/v).
Cotton plants at the cotyledon stage were infested with aphids prior to treatment by placing a heavily infested leaf from the main aphid colony on top of each cotyledon. Aphids were allowed to transfer overnight to accomplish an infestation of 80-100 aphids per plant and the host leaf was removed. The infested plants were then sprayed by an automated electrostatic plant sprayer equipped with an atomizing spray nozzle. The plants were dried in the sprayer fume hood, removed from the sprayer, and then maintained in a growth room under fluorescent lighting in a 24 hr photoperiod at 25° C. and 20-40% relative humidity. Aphid mortality on the treated plants, relative to mortality on untreated control plants, was determined after 5 days.

Megoura viciae = assay: Vetch aphid (Megoura viciae), bean leaf disks in microtiterplates; details: foliar, 144 h, test solution 2500 mg/L, leaf disks sprayed with 2.5 μl, 6 days
Procedure: II.5 Vetch Aphid (Megoura viciae)
The active compounds were formulated in 1:3 (vol:vol) DMSO:water with different concentrations of formulated compounds.
Bean leaf disks were placed into microtiterplates filled with 0.8% agar-agar and 2.5 ppm OPUS™. The leaf disks were sprayed with 2.5 μl of the test solution and 5 to 8 adult aphids were placed into the microtiterplates which were then closed and kept at 23±1° C. and 50±5% relative humidity under fluorescent light for 6 days. Mortality was assessed on the basis of vital, reproduced aphids. Aphid mortality and fecundity was then visually assessed.

Aphis craccivora = assay: Cowpea aphid (Aphis craccivora), spray on potted cowpea plants; details: sprayed, population reduction assessed after 24, 72 and 120 hours, read-out: mortality in comparison with untreated controls
Procedure: II.3 Cowpea Aphid (Aphis craccivora)
The active compounds were formulated in 50:50 (vol:vol) acetone:water. The test solution was prepared at the day of use.
Potted cowpea plants colonized with 100-150 aphids of various stages were sprayed after the pest population had been recorded. Population reduction was assesed after 24, 72, and 120 hours.

Myzus persicae [2] = assay: Green peach aphid (Myzus persicae, mixed life stages), method b: electrostatic spray on bell pepper; details: 120 h, sprayed, after 5 days, read-out: mortality in comparison with untreated controls
Procedure: II.2 Green Peach Aphid (Myzus persicae, Mixed Life Stages)
as §1
Bell pepper plants at the first true-leaf stage were infested prior to treatment by placing heavily infested leaves from the main colony on top of the treatment plants. Aphids were allowed to transfer overnight to accomplish an infestation of 30-50 aphids per plant and the host leaves were removed. The infested plants were then sprayed by an automated electrostatic plant sprayer equipped with an atomizing spray nozzle. The plants were dried in the sprayer fume hood, removed, and then maintained in a growth room under fluorescent lighting in a 24-hr photoperiod at 25° C. and 20-40% relative humidity. Aphid mortality on the treated plants, relative to mortality on untreated control plants, was determined after 5 days.

Dichromothrips Corbetti = assay: Vanda/orchid thrips (Dichromothrips corbetti), dipped orchid petals; details: after 72 hours, read-out: mortality in comparison with untreated controls
Procedure: II.11 Activity Against Vanda/Orchid Thrips (Dichromothrips Corbetti)
The active compounds were formulated as a 50:50 (vol:vol) acetone:water solution. Surfactant (Alkamuls EL 620) was added at the rate of 0.1% (vol/vol). Vanda orchids petals were cleaned, washed and air dried prior to spraying. Petals were dipped into the test solution for 3 seconds, air dried, placed inside a resealable plastic and inoculated with 20 adults. The treated petals were kept inside the holding room at 28-29° C. and relative humidity of 50-60%. Percent mortality was recorded after 72 hours.

Work on `Cc1c(C(=O)Nc2ccnnc2)cnn1CC(F)(F)F` [Compound 1, 5-Methyl-1-(2,2,2-trifluoroethyl)-1H-pyrazole-4-carboxylic acid pyridazin-4-ylamide] yielded a mortality at 2500 µg/mL (Anthonomus grandis) of at least 50%, a mortality at 2500 ppm (Myzus persicae [1]) of 100% and a mortality at 300 ppm (Aphis gossypii) of at least 75%. For the same molecule, the mortality at 2500 µg/mL (Megoura viciae) was at least 90%, the mortality at 300 ppm (Aphis craccivora) was at least 90% and the mortality at 300 ppm (Myzus persicae [2]) was at least 75%. The mortality at 500 ppm (Dichromothrips Corbetti) was at least 50%.
